Reference: patent US20220117895A1, “PREPARING LIPOSOMES WITH HIGH DRUG LOADING CAPACITY AND THE USE THEREOF” (Purdue Research Foundation, priority 2019, published 2022)

Tests used:
[1] = test system: Huh7 human hepatocellular carcinoma cells; assay: Cytotoxicity of drug-loaded liposomes (MTT); assay type: cell-based
Description: Huh7 human hepatocellular carcinoma cells (donation of Prof. Wanqing Liu) were cultured in RPMI-1640 medium complemented with 10% FBS, 100 U/mL penicillin, and […] streptomycin at 37° C. in a humidified 5% CO2 atmosphere. Huh7 cells were seeded in a 96 well plate at a density of 10,000 cells per well and grown to 70% confluence. Huh7 cells were exposed to free drug or liposomal preparations for 3 or 6 h. The cells were rinsed twice with fresh medium and kept in drug-free medium for 72 h. In another experiment, Huh7 cells were incubated with a free Gem, LRSG, LRHG, free Dox, LRD, blank liposomes, free drug mixture, or liposome mixture for 72 h. The medium was then removed, and 15 μL of 5 mg/mL MTT solution and 100 μL media were added to each well and incubated for 4 h at 37° C. Each well was then treated with 100 μL of stop/solubilization solution and agitated at 37° C. overnight. The absorbance of dissolved formazan was measured at 562 nm by a SpectraMax M3 microplate reader (Molecular Devices, Sunnyvale, Calif.).

[2] = literature (Bornmann et al.); cited from earlier work
[3] = cited from earlier work
[4] = upon systemic administration; cited from earlier work
Huh7 cells [5] = assay: Cellular uptake of drug-loaded liposomes, quantitative analysis; assay type: cell-based, human; conditions: Huh7, 50 μM Dox equivalent; evident at 3, 6 and 12 h
Description: Huh7 Cells were seeded in a 12 well plate at a density of 10^5 cells per well. After overnight incubation, the cells were treated with LRHG, LRSG, or free Gem at a concentration equivalent to 50 μM Gem, or with LRD or free Dox at a concentration equivalent to 50 μM Dox. At 3, 6, 12, and 24 h post-treatment, the cells were rinsed twice with cold PBS, trypsinized and collected by centrifugation at 233 rcf. The cell pellets were suspended in PBS and lysed by three cycles of freezing and thawing followed by probe sonication. The protein content in each cell lysate was measured by micro BCA assay. A hundred microliters of cell lysate was mixed with 200 μL of acetonitrile, bath sonicated for 1 h, and centrifuged at 16100 rcf for 30 min to separate a supernatant. The supernatant was evaporated under vacuum overnight and reconstituted in 100 μL of PBS. Dox was detected by the microplate reader at λEx/λEm of 488 nm/580 nm. dFdCTP was detected by HPLC using a 64:36 v/v mixture of two aqueous mobile phases: (i) KH2PO4 10 mM, tetra butyl ammonium bromide (TBABr) 10 mM, pH 7 and 0.25% methanol and (ii) KH2PO4 250 mM, TBABr 10 mM, pH 7 and 15% methanol, run at 1.2 mL/min, and a detection wavelength of 271 nm.

Huh7 cells [6] = assay: Confocal imaging of cellular uptake; assay type: cell-based, human; conditions: 10 min, 3 h, 10 h, with or without chloroquine
Description: Huh7 were seeded in a 35 mm glass-bottomed dish (Mat Tek Corp., Ashland, Mass.) at a density of 100,000 cells per dish. At 70% confluence, the cells were treated with free Dox for 10 min or fluorescently labeled liposomes (*LRD, labeled with 25-NBD cholesterol) for 10 min, 3 h or 10 h. At each time point, the cells were rinsed twice with PBS. After nuclei staining with Hoechst 33342 ([…]) for 10 min, the cells were rinsed again with PBS and imaged in medium by a Nikon-A1R confocal microscope (Nikon America Inc., Melville, N.Y.). For selected treatments, chloroquine was added 12 h prior to the treatment. The cells were rinsed with PBS and incubated with the labeled liposomes for confocal imaging.

[7] = pKa and ionization of drug; assay type: physicochemical; conditions: internal pH 3.6

## Nc1ccn([C@@H]2O[C@H](CO)[C@@H](O)C2(F)F)c(=O)n1 [Gem, Gemcitabine]
[1]; Homo sapiens, Huh-7, 72 h incubation
  IC50: 1600 nM
[2]
  reported maximum tolerated dose: 16 mg/kg
[3]
  pKa: 3.6
[4]
  half-life: 8 to 17 min

## COc1cccc2c1C(=O)c1c(O)c3c(c(O)c1C2=O)C[C@@](O)(C(=O)CO)C[C@@H]3O[C@H]1C[C@H](N)[C@H](O)[C@H](C)O1.Cl [Dox, Doxorubicin HCl]
[1]; 72 h incubation
  IC50: 250 nM
Huh7 cells [5]
  cellular uptake of Dox: entering cells more efficiently than LRD
Huh7 cells [6]
  cellular uptake and localisation by confocal microscope imaging: appearing in the nuclei as early as in 10 min
[7]
  ionized/unionized ratio in the interior of liposomes: 120,000
[3]
  pKa: 8.68
